The assay deals with T1, human μ-opiate receptor (Homo sapiens, UniProt P35372).
T1 construct: purchased PerkinElmer Life Sciences, Zaventem, Belgium RB-HOM; host or cells: CHO-K1 cells (recombinant expression; membrane preparation)
T1 sequence (P35372 whole entry): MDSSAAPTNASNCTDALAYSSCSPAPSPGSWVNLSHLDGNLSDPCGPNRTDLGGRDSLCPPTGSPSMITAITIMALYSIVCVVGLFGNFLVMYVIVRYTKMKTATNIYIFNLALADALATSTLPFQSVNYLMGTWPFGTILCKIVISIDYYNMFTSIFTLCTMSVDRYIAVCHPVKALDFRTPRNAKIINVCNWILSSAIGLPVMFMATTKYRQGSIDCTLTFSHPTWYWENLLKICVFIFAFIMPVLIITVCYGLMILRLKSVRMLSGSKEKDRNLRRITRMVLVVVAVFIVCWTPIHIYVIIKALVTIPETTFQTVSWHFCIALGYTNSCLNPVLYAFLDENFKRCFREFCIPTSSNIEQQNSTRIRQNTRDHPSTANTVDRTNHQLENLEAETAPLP
Kind of assay: Affinity for the human μ-opiate receptor ([3H]-naloxone displacement, SPA). Particulars: Table 2, Examples 11-161; test substance 1 μmole/l; inhibition of specific [3H]-naloxone binding; CHO-K1 membranes; read-out: μ-Opioid receptor, % inhibition [1 μM]. Put shortly:
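CHO-K1 membranes expressing the receptor, incubated 90 min at room temperature with 1 nmol/l [3H]-naloxone and WGA-SPA beads in 50 mmol/l Tris-HCl with 0.06% BSA. Non-specific binding defined with 100 μmol/l naloxone. Value is % inhibition of specific binding at 1 μmol/l test substance.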
The inhibition is the share of the control response that was lost under treatment. Regarding `CCCCN1C=NC(CCC(=O)OC)(C(=O)OC)C1CC1CCC(C(c2ccc(F)cc2)N(C)C)CC1` (stereo not shown) [Example 76, 1-butyl-5-{4-[dimethylamino-(4-fluorophenyl)-methyl]-cyclohexylmethyl}-4-(2-methoxycarbonylethyl)-4,5-dihydro-1H-imidazole-4-carboxylic acid methyl ester], the inhibition at 1 µM was 93%.

In the case of `CCCCN1C=NC(CSC)(C(=O)OC)C1CC1CCC(C(c2ccc(F)cc2)N(C)C)CC1` (stereo not shown) [Example 77, 1-butyl-5-{4-[dimethylamino-(4-fluorophenyl)-methyl]-cyclohexylmethyl}-4-methylsulfanylmethyl-4,5-dihydro-1H-imidazole-4-carboxylic acid methyl ester], the inhibition at 1 µM stood at 88%.

Take `CCCCN1C=NC(CCC(=O)OC)(C(=O)OC)C1CC1CCC(C(CCc2ccccc2)N(C)C)CC1` (stereo not shown) [Example 78, 1-butyl-5-[4-(1-dimethylamino-3-phenylpropyl)-cyclohexylmethyl]-4-(2-methoxycarbonylethyl)-4,5-dihydro-1H-imidazole-4-carboxylic acid methyl ester]: the inhibition at 1 µM came out at 67%.

As for `CCCCN1C=NC(CSCc2ccccc2)(C(=O)OC)C1CC1CCC(C(CCc2ccccc2)N(C)C)CC1` (stereo not shown) [Example 79, 4-benzylsulfanylmethyl-1-butyl-5-[4-(1-dimethylamino-3-phenylpropyl)-cyclohexylmethyl]-4,5-dihydro-1H-imidazole-4-carboxylic acid methyl ester], the inhibition at 1 µM was determined as 79%.

Consider `COC(=O)CCC1(C(=O)OC)N=CN(CCc2ccccc2)C1CC1CCC(C(c2cccc(F)c2)N(C)C)CC1` (stereo not shown) [Example 80, 5-{4-[dimethylamino-(3-fluorophenyl)-methyl]-cyclohexylmethyl}-4-(2-methoxycarbonylethyl)-1-phenethyl-4,5-dihydro-1H-imidazole-4-carboxylic acid methyl ester], for which the inhibition at 1 µM worked out at 90%.

Regarding `CCC(C)C1(C(=O)OC)N=CN(CCc2ccccc2)C1CC1CCC(C(c2cccc(F)c2)N(C)C)CC1` (stereo not shown) [Example 81, 4-sec-butyl-5-{4-[dimethylamino-(3-fluorophenyl)-methyl]-cyclohexylmethyl}-1-phenethyl-4,5-dihydro-1H-imidazole-4-carboxylic acid methyl ester], the inhibition at 1 µM was 76%.

Take `COC(=O)C1(CSCc2ccccc2)N=CN(CCc2ccccc2)C1CC1CCC(C(c2cccc(F)c2)N(C)C)CC1` (stereo not shown) [Example 82, 4-benzylsulfanylmethyl-5-{4-[dimethylamino-(3-fluorophenyl)-methyl]-cyclohexylmethyl}-1-phenethyl-4,5-dihydro-1H-imidazole-4-carboxylic acid methyl ester]: the inhibition at 1 µM came to 95%.

`COC(=O)CCC1(C(=O)OC)N=CN(CCc2ccccc2)C1CC1CCC(C(c2ccc(F)cc2)N(C)C)CC1` (stereo not shown) [Example 83, 5-{4-[dimethylamino-(4-fluorophenyl)-methyl]-cyclohexylmethyl}-4-(2-methoxycarbonylethyl)-1-phenethyl-4,5-dihydro-1H-imidazole-4-carboxylic acid methyl ester]: the inhibition at 1 µM stood at 77%.

Take `COC(=O)CCC1(C(=O)OC)N=CN(CCc2ccccc2)C1CC1CCC(C(CCc2ccccc2)N(C)C)CC1` (stereo not shown) [Example 84, 5-[4-(1-dimethylamino-3-phenylpropyl)-cyclohexylmethyl]-4-(2-methoxycarbonylethyl)-1-phenethyl-4,5-dihydro-1H-imidazole-4-carboxylic acid methyl ester]: the inhibition at 1 µM is 75%.

Take `COC(=O)CCC1(C(=O)OC)N=CN(Cc2ccccc2)C1CC1CCC(C(c2cccc(F)c2)N(C)C)CC1` (stereo not shown) [Example 85, 1-benzyl-5-{4-[dimethylamino-(3-fluorophenyl)-methyl]-cyclohexylmethyl}-4-(2-methoxycarbonylethyl)-4,5-dihydro-1H-imidazole-4-carboxylic acid methyl ester]: the inhibition at 1 µM came out at 95%.

On to `COC(=O)C1(CSCc2ccccc2)N=CN(Cc2ccccc2)C1CC1CCC(C(c2cccc(F)c2)N(C)C)CC1` (stereo not shown) [Example 86, 1-benzyl-4-benzylsulfanylmethyl-5-{4-[dimethylamino-(3-fluorophenyl)-methyl]-cyclohexylmethyl}-4,5-dihydro-1H-imidazole-4-carboxylic acid methyl ester], for which the inhibition at 1 µM was found to be 71%.

In the case of `COC(=O)CCC1(C(=O)OC)N=CN(Cc2ccccc2)C1CC1CCC(C(c2ccc(F)cc2)N(C)C)CC1` (stereo not shown) [Example 87, 1-benzyl-5-{4-[dimethylamino-(4-fluorophenyl)-methyl]-cyclohexylmethyl}-4-(2-methoxycarbonylethyl)-4,5-dihydro-1H-imidazole-4-carboxylic acid methyl ester], the inhibition at 1 µM came to 95%.

As for `CCCCN1C=NC(C(=O)OC)(C(C)CC)C1CC1CCC(C(c2ccc(Cl)cc2)N(C)C)CC1` (stereo not shown) [Example 88, 1-butyl-4-sec-butyl-5-{4-[(4-chlorophenyl)-dimethylaminomethyl]-cyclohexylmethyl}-4,5-dihydro-1H-imidazole-4-carboxylic acid methyl ester], the inhibition at 1 µM came to 98%.

For `CCCCN1C=NC(CSC)(C(=O)OC)C1CC1CCC(C(c2ccc(Cl)cc2)N(C)C)CC1` (stereo not shown) [Example 89, 1-butyl-5-{4-[(4-chlorophenyl)-dimethylaminomethyl]-cyclohexylmethyl}-4-methylsulfanylmethyl-4,5-dihydro-1H-imidazole-4-carboxylic acid methyl ester], the inhibition at 1 µM amounted to 96%.

Take `CCCCN1C=NC(CSCc2ccccc2)(C(=O)OC)C1CC1CCC(C(c2ccc(Cl)cc2)N(C)C)CC1` (stereo not shown) [Example 90, 4-benzylsulfanylmethyl-1-butyl-5-{4-[(4-chlorophenyl)-dimethylaminomethyl]-cyclohexylmethyl}-4,5-dihydro-1H-imidazole-4-carboxylic acid methyl ester]: the inhibition at 1 µM was found to be 99%.

For `COC(=O)CCC1(C(=O)OC)N=CN(CCc2ccccc2)C1C1CCC(C(c2cccc(F)c2)N(C)C)CC1` (stereo not shown) [Example 91, 5-{4-[dimethylamino-(3-fluorophenyl)-methyl]-cyclohexyl}-4-(2-methoxycarbonylethyl)-1-phenethyl-4,5-dihydro-1H-imidazole-4-carboxylic acid methyl ester], the inhibition at 1 µM came to 85%.

`COC(=O)C1(CSCc2ccccc2)N=CN(CCc2ccccc2)C1C1CCC(C(c2cccc(F)c2)N(C)C)CC1` (stereo not shown) [Example 92, 4-benzylsulfanylmethyl-5-{4-[dimethylamino-(3-fluorophenyl)-methyl]-cyclohexyl}-1-phenethyl-4,5-dihydro-1H-imidazole-4-carboxylic acid methyl ester]: the inhibition at 1 µM was 95%.

Consider `COC(=O)C1(CSCc2ccccc2)N=CN(CCc2ccccc2)C1C1CCC(C(c2ccc(Cl)cc2)N(C)C)CC1` (stereo not shown) [Example 93, 4-benzylsulfanylmethyl-5-{4-[(4-chlorophenyl)-dimethylaminomethyl]-cyclohexyl}-1-phenethyl-4,5-dihydro-1H-imidazole-4-carboxylic acid methyl ester], for which the inhibition at 1 µM turned out to be 92%.

Take `COC(=O)CCC1(C(=O)OC)N=CN(CCc2ccccc2)C1CC1CCC(C(c2ccc(Cl)cc2)N(C)C)CC1` (stereo not shown) [Example 94, 5-{4-[(4-chlorophenyl)-dimethylaminomethyl]-cyclohexylmethyl}-4-(2-methoxycarbonylethyl)-1-phenethyl-4,5-dihydro-1H-imidazole-4-carboxylic acid methyl ester]: the inhibition at 1 µM was determined as 97%.

With `COC(=O)CCC1(C(=O)OC)N=CN(Cc2ccccc2)C1C1CCC(C(c2cccc(F)c2)N(C)C)CC1` (stereo not shown) [Example 95, 1-benzyl-5-{4-[dimethylamino-(3-fluorophenyl)-methyl]-cyclohexyl}-4-(2-methoxycarbonylethyl)-4,5-dihydro-1H-imidazole-4-carboxylic acid methyl ester], the inhibition at 1 µM is 94%.

As to `COC(=O)C1(CSC)N=CN(Cc2ccccc2)C1C1CCC(C(c2cccc(F)c2)N(C)C)CC1` (stereo not shown) [Example 96, 1-benzyl-5-{4-[dimethylamino-(3-fluorophenyl)-methyl]-cyclohexyl}-4-methylsulfanylmethyl-4,5-dihydro-1H-imidazole-4-carboxylic acid methyl ester], the inhibition at 1 µM worked out at 97%.

In the case of `COC(=O)C1(CSCc2ccccc2)N=CN(Cc2ccccc2)C1C1CCC(C(c2cccc(F)c2)N(C)C)CC1` (stereo not shown) [Example 97, 1-benzyl-4-benzylsulfanylmethyl-5-{4-[dimethylamino-(3-fluorophenyl)-methyl]-cyclohexyl}-4,5-dihydro-1H-imidazole-4-carboxylic acid methyl ester], the inhibition at 1 µM was 97%.

Take `COC(=O)C1(CSCc2ccccc2)N=CN(Cc2ccccc2)C1C1CCC(C(c2ccc(Cl)cc2)N(C)C)CC1` (stereo not shown) [Example 98, 1-benzyl-4-benzylsulfanylmethyl-5-{4-[(4-chlorophenyl)-dimethylaminomethyl]-cyclohexyl}-4,5-dihydro-1H-imidazole-4-carboxylic acid methyl ester]: the inhibition at 1 µM turned out to be 95%.

In the case of `COC(=O)CCC1(C(=O)OC)N=CN(Cc2ccccc2)C1CC1CCC(C(c2ccc(Cl)cc2)N(C)C)CC1` (stereo not shown) [Example 99, 1-benzyl-5-{4-[(4-chlorophenyl)-dimethylaminomethyl]-cyclohexylmethyl}-4-(2-methoxycarbonylethyl)-4,5-dihydro-1H-imidazole-4-carboxylic acid methyl ester], the inhibition at 1 µM came out at 100%.

Regarding `COC(=O)C1(CSC)N=CN(Cc2ccccc2)C1CC1CCC(C(c2ccc(Cl)cc2)N(C)C)CC1` (stereo not shown) [Example 100, 1-benzyl-5-{4-[(4-chlorophenyl)-dimethylaminomethyl]-cyclohexylmethyl}-4-methylsulfanylmethyl-4,5-dihydro-1H-imidazole-4-carboxylic acid methyl ester], the inhibition at 1 µM stood at 97%.

Values taken from US7728028B2, “Substituted imidazoline compounds” (Gruenenthal GmbH, priority 2005, dated 2010).
